{"source": "paper PMC5149032", "about": "“Secondary Metabolites and Biological Activities of Talaromyces sp. LGT-2, an Endophytic Fungus from Tripterygium Wilfordii” (Iranian Journal of Pharmaceutical Research : IJPR, 2016)", "molecular_target": "monoamine oxidase (MAO), isoform not stated", "experiment": "MAO inhibition assay (procedure cited to earlier paper; enzyme source not given)", "type": "biochemical"}
{"smiles": "O=CN/C=C\\c1ccc(O)cc1", "note": "[compound 11, (Z)-N-(4-hydroxystyryl)formamide]", "values": [{"measurement": "IC50", "value": 61, "unit": "µM"}]}
